Measured values reported in patent US20220133872A1, “A MONOPHOSPHORYL LIPID-A LIPOSOME BASED CANCER VACCINE” (University of Florida Research Foundation, Inc., priority 2019, published 2022).
Entries after “also recorded” stand apart in the source; their conditions may differ.

System: NKT cells
Experiment: NKT cells in blood, spleen and liver of vaccinated C57BL/6 mice (flow cytometry)
Type: in vivo
Details: vs untreated mice
Description: B16-F10 mouse melanoma cell line in C57/BL6 mice provides a syngeneic model of spontaneous highly metastatic tumor. As shown in the diagram of FIG. 13, three groups of mice were injected with B16 melanoma cell lines. Only one group received the GD3 based vaccine, the other groups were a control group and α-galactosylceramide (α-GalCer), a potent and specific activator of mouse and human iNKT cells. These C57BL/6 mice were vaccinated weekly for 4 weeks followed by a week of rest (see FIG. 13). Mice where then euthanized to collect, blood, liver, and spleen for evaluation of NKT cells. Liver lymphocytes were collected by making mono-cellular suspension of liver obtained after enzymatic digestion. Collected lymphocytes were stained for CD3, CD4, TCRβ, NK1.1, CD49b and dead cells. In these experiments untreated and α-galactosylceramide (α-GalCer) treated mice were used as controls. Tumor size and mass was only recorded.
One week post last vaccination, mice were euthanized as per IACUC protocol and Natural Killer T cells were evaluated in blood, spleen, and liver by staining the isolated cells with anti-CD45, CD3, CD4, TCRb, CD49b and NK1.1 antibodies. The stained cells were analyzed on BD Fortessa and FlowJo 10 v.

How did the “NKT cells in the liver” value (liver, weekly x4, one week after last vaccination) turn out when `CCCCCCCCCCCCCCCCCCCCCCCCCC(=O)N[C@@H](CO[C@H]1O[C@H](CO)[C@H](O)[C@H](O)[C@H]1O)[C@H](O)[C@H](O)CCCCCCCCCCCCCC` [α-GalCer, α-galactosylceramide] was run?
Its value is “increased; also recorded: accumulation”.

And the “NKT cells in spleen and blood” value (spleen and blood)?
The value was “no discernable differences”.
